pEC50, pIC50: −log10 of the molar value. Where two headings read alike, the source gives them in different places.
Experiments:
[1] = molecular target: T1, soluble guanylate cyclase (sGC) (Bos taurus, UniProt P16068+P19687); experiment: Activity of purified sGC stimulated with DEA/NO; type: biochemical, bovine; settings: for Emax of DEA/NO-stimulated sGC activity in presence of flavoring: flavoring 1 mM, DEA/NO 0.01–10 μM
T1 construct: The activity of sGC purified from bovine lung; from tissue; host or cells: bovine lung
T1 sequence (P19687 1-691): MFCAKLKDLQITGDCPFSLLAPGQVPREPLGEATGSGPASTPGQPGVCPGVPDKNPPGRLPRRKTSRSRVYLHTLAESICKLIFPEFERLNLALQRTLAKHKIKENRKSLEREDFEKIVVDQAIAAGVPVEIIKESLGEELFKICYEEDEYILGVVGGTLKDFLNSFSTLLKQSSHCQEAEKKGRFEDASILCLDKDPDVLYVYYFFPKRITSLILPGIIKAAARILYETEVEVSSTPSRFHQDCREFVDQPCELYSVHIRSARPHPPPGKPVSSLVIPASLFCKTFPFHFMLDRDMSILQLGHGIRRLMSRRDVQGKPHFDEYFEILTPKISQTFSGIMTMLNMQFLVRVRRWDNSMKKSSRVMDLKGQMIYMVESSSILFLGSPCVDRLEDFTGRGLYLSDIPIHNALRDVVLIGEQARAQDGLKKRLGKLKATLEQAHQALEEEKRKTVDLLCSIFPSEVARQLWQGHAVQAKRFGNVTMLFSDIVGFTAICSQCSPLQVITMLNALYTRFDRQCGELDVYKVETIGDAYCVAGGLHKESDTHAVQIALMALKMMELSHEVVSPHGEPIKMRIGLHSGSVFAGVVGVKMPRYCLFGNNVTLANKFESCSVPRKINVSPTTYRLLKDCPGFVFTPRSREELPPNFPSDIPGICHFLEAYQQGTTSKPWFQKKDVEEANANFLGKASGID
T1 sequence (P16068 1-619): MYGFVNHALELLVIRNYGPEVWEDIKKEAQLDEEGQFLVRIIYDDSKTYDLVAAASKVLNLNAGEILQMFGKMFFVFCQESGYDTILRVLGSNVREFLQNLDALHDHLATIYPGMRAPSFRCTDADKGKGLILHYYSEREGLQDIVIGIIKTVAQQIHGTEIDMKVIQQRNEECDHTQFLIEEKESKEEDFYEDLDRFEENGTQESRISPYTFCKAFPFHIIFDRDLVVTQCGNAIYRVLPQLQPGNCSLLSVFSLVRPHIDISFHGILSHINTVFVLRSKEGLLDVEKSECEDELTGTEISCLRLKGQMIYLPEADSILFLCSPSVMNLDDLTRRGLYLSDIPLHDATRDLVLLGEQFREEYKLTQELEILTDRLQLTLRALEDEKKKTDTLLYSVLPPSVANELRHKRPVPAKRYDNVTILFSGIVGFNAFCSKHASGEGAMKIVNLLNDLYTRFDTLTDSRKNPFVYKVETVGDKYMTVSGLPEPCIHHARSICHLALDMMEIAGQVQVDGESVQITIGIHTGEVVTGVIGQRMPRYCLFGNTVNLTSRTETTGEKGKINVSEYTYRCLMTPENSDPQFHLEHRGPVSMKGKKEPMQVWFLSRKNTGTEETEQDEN
Experimental: The activity of sGC purified from bovine lung was determined as formation of [^32P]cGMP from [α-^32P]GTP. The purified enzyme (50 ng) was incubated at 37°C for 10 min in a final volume of 0.1 ml in the absence or presence of flavorings with the NO donor DEA/NO at concentrations indicated in the figure legends, followed by isolation of [^32P]cGMP and quantification of radioactivity (Cerenkov radiation) in a β counter.
To test for reversibility of inhibition, sGC (50 ng) was preincubated in the absence or presence of the respective compounds for 5 minutes at 37°C, followed by 50-fold dilution in the assay mixtures and incubation with DEA/NO at 37°C for 10 minutes.

endothelial cells [2] = experiment: MTT to formazan conversion (viability); type: cell-based, porcine; settings: 1 mM, 60 minutes
Experimental: The viability of endothelial cells was judged by incubation with 1 mM of the flavoring compounds, followed by determination of 3-(4,5-dimethyl-2-thiazolyl)-2,5-diphenyltetrazolium bromide (MTT) to formazan conversion using the Cayman MTT Cell Proliferation Assay Kit purchased through VWR International (Vienna, Austria).

rat aortic rings = experiment: Effect of flavorings on vascular tone of U-46619 precontracted aortic rings; settings: 95% CI; for pEC50: Rattus norvegicus
Experimental: Unsexed Sprague-Dawley rats (obtained from Charles River, Sulzfeld, Germany) were housed at the local animal facility in approved cages. […] Animals were euthanized in a box that was gradually filled with CO2 until vital signs had ceased (cessation of respiration and circulation). Subsequently, the thorax of the animals was opened, the thoracic aorta was removed, cleaned from connective tissue and immediately used for assessment of vessel function.
After equilibration for 60 min at the optimal resting tension of 20 mN, maximal contractile activity was determined with a depolarizing solution containing 60 mM K^+. […] When contraction had reached a stable plateau (~after 20 min) cumulative concentration-response curves were established with flavorings. Where indicated, the effects of the flavorings on vascular tone were tested in the presence of the NOS inhibitor N^G-nitro-L-arginine methyl ester (L-NAME, 0.2 mM).
Concentration-response curves of different ring segments from a single animal were averaged and counted as an individual experiment.

endothelial cells [3] = experiment: LDH release (membrane integrity); settings: 1 mM, 60 minutes; maximum = 1% Triton
Experimental: To test for membrane integrity, endothelial cells were assayed for release of lactate dehydrogenase (LDH) into the culture medium. Subsequent to incubation with flavoring compounds (1 mM each) for 1 hour, 20-μl aliquots of the culture media were mixed with 200 μl of reagent buffer (1 mM pyruvate and 0.1 mM NAD^+ in PBS). The decrease in light absorbance at 340 nm was monitored using a diode array spectrophotometer (Hewlett Packard 8452A). Maximum LDH release was determined by treating the cells with 1% Triton X-100.

[4] = Electrochemical determination of NO released from DEA/NO (NO scavenging); settings: DEA/NO 1 μM
Experimental: Scavenging of NO by flavoring compounds was studied with a nitric oxide sensor (ISO-NOP, World Precision Instruments, Berlin, Germany), calibrated with acidified nitrite as described previously. Free NO radical was generated by incubation of DEA/NO (1 μM) in 1 ml of 100 mM phosphate buffer, pH 7.4, in the absence or presence of superoxide dismutase (2500 U/ml) at ambient temperature. At the peak concentration of NO, flavoring compounds (10 μl of DSMO stock solutions) were added, DMSO served as vehicle control.

[5] = test system: endothelium-denuded rat aortic rings; experiment: cAMP and cGMP levels in endothelium-denuded aortic rings; settings: 10 µM
Source text: 1 S4 Table. […]
2 endothelium-denuded rat aortic rings.
Flavoring (fmol x mg-1) (fmol x mg-1)
4 En d o th e liu m-denuded rings, treated with test compounds as described in the
5 Materials and methods section of the main text, were freeze-clamped when maximal
6 relaxation had been reached. Rings were homogenized in 5% trichloroacetic acid
7 and analyzed for cAMP and cGMP by radioimmunoassay. Forskolin and DEA/NO
8 were used to induce maximal accumulation of cAMP and cGMP, respectively. Data
9 shown are mean values±SEM of 3 (forskolin and DEA/NO) or 6 (basal,
10 cinnamaldehyde and eugenol) rings; n.d., not determined, *p<0.05 vs. basal (ANOVA
11 and Dunnett's post hoc test).

[6] = test system: Porcine aortic endothelial cells (endogenous NO/cGMP pathway); experiment: A23187 (Ca2+ ionophore)-induced endothelial cGMP formation; type: cell-based; settings: NNA 0.3 mM
Experimental: Porcine aortic endothelial cells were isolated as described and cultured at 37°C, 5% CO2 for up to 3 passages in Dulbecco´s modified Eagle´s medium, containing 10% heat-inactivated fetal calf serum (FCS), 100 U/ml penicillin, 0.1 mg/ml streptomycin, and 1.25 μg/ml amphotericin B. Prior to experiments, cells were subcultured into 24-well plates (determination of cGMP formation) or 6-well plates (determination of L-citrulline formation).
Accumulation of intracellular 3',5'-cyclic GMP (cGMP) was determined as previously described. Briefly, endothelial cells were washed and preincubated with the compounds to be tested for 15 minutes at 37°C in 50 mM Tris buffer, pH 7.4, containing 100 mM NaCl, 5 mM KCl, 1 mM MgCl2, 2.5 mM CaCl2, 1 mM 3-isobutyl-1-methylxanthine, and 1 μM indomethacin. Reactions were started by addition of the Ca^2+ ionophore A 23187 (final concentration 1 μM) or the NO donor DEA/NO (final concentration 1 μM) and terminated after 4 minutes by removal of the incubation medium and addition of 0.01 M HCl. Within 1 h, intracellular cGMP was completely released into the supernatant and measured by radioimmunoassay.

[7] = rats, after intravenous cinnamaldehyde; cited from earlier work
[8] = absence of L-NAME, read-out: EC50 of relaxation of pre-contracted vessels (Control)
[9] = presence of L-NAME 0.2 mM, read-out: EC50 of relaxation of pre-contracted vessels (L-NAME)

CC(=O)c1ccccn1 [Acetylpyridine, 1-(Pyridin-2-yl)ethan-1-one]
Emax of DEA/NO-stimulated sGC activity in presence of flavoring [1]: 28±0.8 µmol cGMP x min-1 x mg-1
Formazan formation (% of control) (endothelial cells [2]): 102±4.4 % of control
pEC50 (rat aortic rings; [8]): 2.43
pEC50 (rat aortic rings; [9]): 2.25
LDH release (% of maximum) (endothelial cells [3]): 0.7±0.12 % of maximum

O=Cc1ccccc1 [Benzaldehyde, benzaldehyde]
pEC50 (rat aortic rings; [8]): 2.66
pEC50 (rat aortic rings; [9]): 2.60

CC(=O)C(C)=O [Diacetyl, Butane-2,3-dione]
pIC50 ([1]; DEA/NO 0.05 μM, 95% CI): 3.54
Formazan formation (% of control) (endothelial cells [2]): 95±4.6 % of control
Effect on recorded NO signal (NO scavenging) ([4]; 1 mM): only moderate effects
Effect on recorded NO signal (NO scavenging) ([4]; 10 mM): pronounced decrease
EC50 of relaxation of pre-contracted vessels (Control) (rat aortic rings; absence of L-NAME): no effects below 10 mM
LDH release (% of maximum) (endothelial cells [3]): 0.6±0.03 % of maximum

Cc1cnc(C)cn1 [Dimethylpyrazine, 2,5-Dimethylpyrazine]
Emax of DEA/NO-stimulated sGC activity in presence of flavoring [1]: 27±0.7 µmol cGMP x min-1 x mg-1
Formazan formation (% of control) (endothelial cells [2]): 103±3.7 % of control
pEC50 (rat aortic rings; [8]): 2.38
pEC50 (rat aortic rings; [9]): 2.28
LDH release (% of maximum) (endothelial cells [3]): 0.9±0.12 % of maximum

CC12CCC(CC1)C(C)(C)O2 [Eucalyptol, 1,3,3-Trimethyl-2-oxabicyclo[2.2.2]octane]
Formazan formation (% of control) (endothelial cells [2]): 99±2.0 % of control
EC50 of relaxation of pre-contracted vessels (Control) (rat aortic rings; absence of L-NAME): no effects below 10 mM
LDH release (% of maximum) (endothelial cells [3]): 1.0±0.27 % of maximum

C=C[C@@]1(C)CC(=O)[C@]2(O)[C@@]3(C)[C@@H](O)CCC(C)(C)[C@@H]3[C@H](O)[C@H](OC(C)=O)[C@@]2(C)O1 [Forskolin, reference compound]
cAMP [5]: 9309±488 fmol x mg-1

CC(=O)OCCC(C)C [Isoamylacetate, 3-Methylbutyl acetate]
Emax of DEA/NO-stimulated sGC activity in presence of flavoring [1]: 28±0.7 µmol cGMP x min-1 x mg-1
Formazan formation (% of control) (endothelial cells [2]): 103±3.8 % of control
EC50 of relaxation of pre-contracted vessels (Control) (rat aortic rings; absence of L-NAME): no effects below 10 mM
LDH release (% of maximum) (endothelial cells [3]): 0.7±0.28 % of maximum

CC1CCC(C(C)C)C(O)C1 (centres unmarked) [Menthol, 5-Methyl-2-(propan-2-yl)cyclohexan-1-ol]
Emax of DEA/NO-stimulated sGC activity in presence of flavoring [1]: 28±0.4 µmol cGMP x min-1 x mg-1
Formazan formation (% of control) (endothelial cells [2]): 100±2.9 % of control
pEC50 (rat aortic rings; [8]): 2.80
pEC50 (rat aortic rings; [9]): 2.85
LDH release (% of maximum) (endothelial cells [3]): 0.8±0.03 % of maximum

N=C(NCCC[C@H](N)C(=O)O)N[N+](=O)[O-] [NNA, N^G-nitro-L-arginine, reference compound]
Effect on A23187-induced cGMP accumulation [6]: completely inhibited

COc1cc(C=O)ccc1O [Vanillin, 4-Hydroxy-3-methoxybenzaldehyde]
Emax of DEA/NO-stimulated sGC activity in presence of flavoring [1]: 25±0.6 µmol cGMP x min-1 x mg-1
Formazan formation (% of control) (endothelial cells [2]): 109±6.7 % of control
pEC50 (rat aortic rings; [8]): 2.77
pEC50 (rat aortic rings; [9]): 2.74
LDH release (% of maximum) (endothelial cells [3]): 1.4±0.72 % of maximum

O=C(O)/C=C/c1ccccc1 [cinnamic acid]
Biological half-life [7]: about 7 minutes
